# Calls of active or inactive are those of the source. The rule behind the calls is not given here.
# Assays:
# [1] = biological target: Cholinesterase (Equus caballus, UniProt P81908)
# Description: Inhibition of equine serum BchE using S-butyryl thiocholine iodide as substrate incubated for 10 mins followed by substrate addition measured at 0 to 180 secs by Ellman's method
# [2] = biological target: Amyloid-beta precursor protein (Homo sapiens) (UniProt P05067); assay: Inhibition of amyloid beta (1 to 42) (unknown origin) self-induced aggregation at 25 uM measured after 46 to 48 hrs by Thioflavin binding assay relative to control; conditions: time 46-48 hrs
# [3] = biological target: Acetylcholinesterase (Electrophorus electricus, UniProt O42275); assay: Inhibition of Electrophorus electricus AchE using […] as substrate incubated for 10 mins followed by substrate addition measured at 0 to 180 secs by Ellman's method
# [4] = system: PC-12; assay: Cytoprotective activity against H2O2-induced oxidative damage in rat PC-12 cells assessed as cell viability at 1 uM preincubated for 4 hrs followed by H2O2 treatment for another 24 hrs by MTT assay; assay type: functional, cell-based; conditions: time 28.0 hrs
# [5] = in vitro; conditions: PAMPA
# Sequence of Cholinesterase (P81908 whole entry): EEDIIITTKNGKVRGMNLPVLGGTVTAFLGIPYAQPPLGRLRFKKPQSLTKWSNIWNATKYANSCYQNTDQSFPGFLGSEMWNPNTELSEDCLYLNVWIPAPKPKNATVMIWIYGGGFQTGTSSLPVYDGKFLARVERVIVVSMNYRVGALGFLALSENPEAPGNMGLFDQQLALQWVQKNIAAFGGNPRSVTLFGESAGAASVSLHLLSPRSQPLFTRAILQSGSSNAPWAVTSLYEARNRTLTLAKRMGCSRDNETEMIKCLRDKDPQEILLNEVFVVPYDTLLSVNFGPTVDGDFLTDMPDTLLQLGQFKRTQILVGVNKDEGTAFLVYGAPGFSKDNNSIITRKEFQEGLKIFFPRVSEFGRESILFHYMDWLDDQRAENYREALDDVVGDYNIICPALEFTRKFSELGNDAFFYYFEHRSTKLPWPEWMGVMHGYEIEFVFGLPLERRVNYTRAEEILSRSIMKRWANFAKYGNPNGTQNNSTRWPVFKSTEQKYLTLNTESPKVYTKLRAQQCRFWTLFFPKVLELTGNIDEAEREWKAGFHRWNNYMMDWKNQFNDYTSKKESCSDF
# Sequence of Amyloid-beta precursor protein (Homo sapiens) (P05067 whole entry): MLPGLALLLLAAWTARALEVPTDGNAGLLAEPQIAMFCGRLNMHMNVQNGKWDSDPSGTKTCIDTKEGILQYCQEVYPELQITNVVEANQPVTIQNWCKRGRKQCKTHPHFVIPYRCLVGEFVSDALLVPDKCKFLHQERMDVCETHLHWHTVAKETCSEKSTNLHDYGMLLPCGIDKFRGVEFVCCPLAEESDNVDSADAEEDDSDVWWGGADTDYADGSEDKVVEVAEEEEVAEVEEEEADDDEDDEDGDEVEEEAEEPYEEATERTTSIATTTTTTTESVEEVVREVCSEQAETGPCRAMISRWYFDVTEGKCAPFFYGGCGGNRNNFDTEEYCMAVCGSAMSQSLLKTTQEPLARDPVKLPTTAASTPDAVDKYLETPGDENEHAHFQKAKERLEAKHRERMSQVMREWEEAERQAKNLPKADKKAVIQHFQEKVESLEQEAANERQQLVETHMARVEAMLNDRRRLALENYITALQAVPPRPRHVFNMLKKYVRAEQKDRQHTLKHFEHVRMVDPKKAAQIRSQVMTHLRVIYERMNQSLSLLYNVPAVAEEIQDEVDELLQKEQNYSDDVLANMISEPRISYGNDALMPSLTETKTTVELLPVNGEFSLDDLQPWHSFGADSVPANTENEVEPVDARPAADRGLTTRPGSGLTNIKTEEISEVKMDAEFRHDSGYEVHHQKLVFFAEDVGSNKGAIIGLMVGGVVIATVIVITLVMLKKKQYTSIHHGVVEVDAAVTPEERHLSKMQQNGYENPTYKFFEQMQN
# Sequence of Acetylcholinesterase (O42275 whole entry): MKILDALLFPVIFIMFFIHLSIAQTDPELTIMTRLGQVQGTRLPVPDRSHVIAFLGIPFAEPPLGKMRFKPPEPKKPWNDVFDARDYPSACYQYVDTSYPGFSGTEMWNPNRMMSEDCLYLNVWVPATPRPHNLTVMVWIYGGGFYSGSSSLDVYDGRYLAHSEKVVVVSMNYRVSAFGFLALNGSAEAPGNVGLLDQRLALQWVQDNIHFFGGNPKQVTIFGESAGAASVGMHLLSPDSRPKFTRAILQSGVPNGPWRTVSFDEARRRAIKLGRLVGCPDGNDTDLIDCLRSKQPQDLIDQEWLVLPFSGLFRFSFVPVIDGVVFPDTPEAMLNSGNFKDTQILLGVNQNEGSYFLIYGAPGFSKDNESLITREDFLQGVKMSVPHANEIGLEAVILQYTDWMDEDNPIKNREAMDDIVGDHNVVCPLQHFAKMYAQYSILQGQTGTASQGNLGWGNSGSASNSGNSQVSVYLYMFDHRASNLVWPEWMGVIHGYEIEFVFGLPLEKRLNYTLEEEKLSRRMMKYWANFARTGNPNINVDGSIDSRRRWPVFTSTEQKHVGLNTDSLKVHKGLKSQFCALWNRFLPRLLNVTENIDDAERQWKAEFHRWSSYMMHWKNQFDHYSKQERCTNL
Structure (SMILES),IC50 [1],inhibition [2],IC50 [3],Activity [4],Papp [5]
CN1CCN(CCCOc2cc3c4c(nccc4c2)-c2ccccc2C3=O)CC1,> 100 µM,29.1%,0.82 µM,,
O=C1c2ccccc2-c2nccc3cc(OCCCN4CCOCC4)cc1c23,> 100 µM,23.5%,10.2 µM,Active,
O=C1c2ccccc2-c2nccc3cc(OCCCN4CCCCC4)cc1c23,35.3 µM,41.2%,0.14 µM,Active,
CCn1cc(C(=O)O)c(=O)c2cc(F)c(N3CCNC(C)C3)c(F)c21 (centres undefined) [LOMEFLOXACIN],,,,,0.9 ×10⁻⁶ cm/s
O=C1c2ccccc2-c2nccc3cc(OCCN4CCCCC4)cc1c23,6.71 µM,27.5%,3.69 µM,Active,
CC1CCCCN1CCOc1cc2c3c(nccc3c1)-c1ccccc1C2=O (centres undefined),> 100 µM,16.2%,1.31 µM,Active,
O=C1c2ccccc2-c2nccc3cc(OCCN4CCOCC4)cc1c23,> 100 µM,24.4%,19.7 µM,Active,
O=C1c2ccccc2-c2nccc3cc(OCCCCN4CCCCC4)cc1c23,15.4 µM,32.1%,0.15 µM,Active,
Clc1cccc(Cl)c1N=C1NCCN1 [CLONIDINE],,,,,5.7 ×10⁻⁶ cm/s
